# Laboratory results as given in patent US9950048B2, “Immunogenic epitopes for immunotherapy” (immatics biotechnologies GmbH, priority 2007, dated 2018).
# Ends that are not written are not given here.
# How the values were obtained:
# [1] = Particle size/shape measurement and analytical HPLC of reconstituted IMA910 suspension; format: physicochemical; conditions: sodium hydrogen carbonate (4.2%)
# Method: Particle size distribution and particle shape measurement of the particles obtained after reconstitution have been performed by capturing direct images of each individual particle in the range of 0.25 to 100 μm followed by image analysis.
# Furthermore, analytical HPLC was performed for a closer characterization of the obtained suspension.
# IMA910 is dissolved in 700 μL sodium hydrogen carbonate (4.2%).
# [2] = target: HLA-A*0201 (Homo sapiens, UniProt P04439, D140Y/D185E/D98H/E176V/E277Q/G131W/G231S/I119V/I121R/I166T/I218V/L300P/L318F/N151K/N90K/P208A/P217A/Q86G/Q94H/R138H/R169H/T345S); assay: HLA-A*0201 binding assay, ELISA EpI Kit (Example 4); conditions: for binding affinity to HLA-A*0201 (KD), in words: FIG. 4, lower KD = higher affinity
# Method: FIG. 4 depicts binding affinities of selected peptides to HLA-A*0201 as measured by EpI ELISA according to Sylvester-Hvid, C, et al., 2002, Tissue Antigens, 59, 251-258). The analysis was limited to peptides known to be MHC class I binding peptides. Affinities of HLA-DR binding peptides cannot be measured with this assay.
# The HLA binding assay was performed using the ELISA EpI Kit (obtained from Sceren Buus, Institute of Medical Microbiology and Immunology at the University of Copenhagen, Denmark) according to Sylvester-Hvid (Sylvester-Hvid, at al., 2002, Tissue Antigens, 59, 251-258) and the ELISA EpI Kit manual by the manufacturer.
# Peptides were dissolved in DMSO+0.5% TFA (Merck, Darmstadt, Germany) at a concentration of 10 mg/ml. The highest peptide working solution used in this assay was 200 μM, therefore the stock solution was diluted 1:50 in a peptide-dilution buffer (PBS with 0.1% Lutrol-F68 and 10 mg/1 Phenol red) to a final volume of 100 μl. A serial five-fold dilution was performed with peptide-dilution buffer.
# According to the manual, a 2-fold concentrated HLA-A*0201 solution was prepared by mixing 3×pH buffer (pH 6.6), Lutrol-F68, human β2m, recombinant HLA-A*0201 (all included in the ELISA EpI Kit) with PBS.
# For the refolding process, 15 μl of peptide serial dilutions and 15 μl of the 2-fold concentrated MHC mix were mixed in 96-well plates (Nunc, Rochester, N.Y., USA) and incubated at 18° C. for 48 hours.
# Maxisorp plates (Nunc, Rochester, N.Y.) were coated with 5 μg/ml w6/32 antibody in coating buffer (pH 9.6), incubated for 24 h at 4° C. and blocked with 5% skim milk powder (Merck, Darmstadt, Germany) in PBS over night at 4° C.
# MHC complex standard (ELISA EpI Kit) was diluted with 2% skim milk powder in PBS (SMP/PBS) to a concentration of 10 nM. A serial 3.16-fold dilution was prepared and transferred to the coated and blocked Maxisorp plate. […] Plates were read at OD450 nm using the VERSAmax ELISA-Reader (Molecular Devices, Sunnyvale, Calif., USA). […]
# [3] = system: CD8+ T cells of healthy donors; assay: Priming of high-avidity CD8+ T cells with low density pMHC beads, tetramer staining and FACS sorting; format: cell-based, human; conditions: for establishment of specific high-avidity T-cell lines by FACS: healthy donors; for in vitro immunogenicity with low pMHC density aAPCs: low density beads (2 ng relevant pMHC)
# Source text: Dependent on their ability to be activated by high- or low-density antigen, T cell lines can be divided into high- or low-avidity. As it has been shown before (Walter, S, et al., 2003, J. Immunol., 171, 4974-4978), human high-avidity CTLs can be raised successfully by using less peptide for activation compared to low-avidity CD8+ T cells.
# To determine the ability of peptides to generate high-avidity CTL lines, isolated human CD8+ cells were primed and expanded by repeated in vitro stimulations with beads coated with low-density pMHC (peptide-MHC-complex) and anti-CD28 antibody in the presence of IL-12 and IL-2. After three stimulations, a fraction of in vitro primed T cells were pMHC-tetramer stained and detected by cytometric analysis. Tetramer-positive cells of each donor were pooled afterwards according to the antigen specificity, stained with pMHC-tetramer and human anti-CD8-FITC antibody and finally subjected to FACS sorting on a FACSAria. Sorted cells were cultured and expanded in the presence of irradiated feeder cells, cytokines and mitogen. As a read-out for the generation of primed high avidity antigen specific cells, pMHC-tetramer staining was performed. In order to determine their functionality, IFNγ production was assayed by ELISPOT and killing of tumor cell lines was examined using a cytotoxicity assay based on live/dead staining after restimulation of the cells with the corresponding peptide and tumor cell lines.
# In vitro stimulations using artificial antigen presenting cells (aAPC) loaded with peptide-MHC complex (pMHC) and anti-CD28 antibody were conducted as described above. The only difference to the method described above was the fact that stimulations were performed with beads loaded with 2 ng relevant plus 200 ng irrelevant library (pMHC) MHC (low density beads) instead of 200 ng relevant MHC (high density beads). Thus, predominantly high avidity T cells were generated for deeper validation of peptides. After three stimulations, a fraction of in vitro primed T cells was pMHC-tetramer stained and detected by cytometric analysis. […] Tetramer-positive cells of each donor were pooled afterwards according to the antigen specificity, stained with the corresponding pMHC-tetramer and human anti-CD8-FITC antibody clone SK1 and finally subjected to FACS sorting on a FACSAria (BD Biosciences, Germany). […] As a read-out for the generation of primed high avidity antigen specific cells, pMHC-tetramer staining was performed as above and analyzed on a four-color FACSCalibur (BD Biosciences, Germany).
sequence,measurement,setting,value
ILAPVILYI [NOX-001],solubility in the solution used for reconstitution of IMA910,[1],almost insoluble
same,"binding affinity to HLA-A*0201 (KD), in words",[2],slightly higher binding affinity
same,establishment of specific high-avidity T-cell lines by FACS,[3],specific T-cell lines could be established by FACS
same,in vitro immunogenicity with low pMHC density aAPCs,[3],immunogenic in vitro
ALFVRLLALA [TGFBI-001],solubility in the solution used for reconstitution of IMA910,[1],almost insoluble
same,fold lower KD value compared with the majority of peptides,[2]; FIG. 4,100 fold
same,"binding affinity to HLA-A*0201 (KD), in words",[2],strongest binder
same,establishment of specific high-avidity T-cell lines by FACS,[3],specific T-cell lines could be established by FACS
same,in vitro immunogenicity with low pMHC density aAPCs,[3],immunogenic in vitro
